Target: T1, F508delCFTR (Homo sapiens, UniProt P13569, DEL508-508)
T1 construct: expressed in transfected cells; host or cells: CFBE41o- (CFBE41o-F508delCFTR-HRP), doxycycline-inducible
Experiment: Cell Surface Expression-Horse Radish Peroxidase (CSE-HRP) assay
Type: cell-based
Settings: CFBE41o-F508delCFTR-HRP cells; for EC50: cell surface expression, luminescence readout, 18-24 hours at 33° C., highest concentration tested 20 μM, 8-point curve; for Maximum % activity: maximum at any tested concentration, normalized to on-plate positive control (3 μM) and DMSO
Source text: Cell Surface Expression-Horse Radish Peroxidase (CSE-HRP) Assay:
A cellular assay for measuring the F508delCFTR cell surface expression after correction with test compounds was developed in human lung derived epithelial cell line (CFBE41o-) (Veit G et al, (2012) Mol Biol Cell. 23(21): 4188-4202). This was achieved by expressing the F508delCFTR mutation along with a horseradish peroxidase (HRP) in the fourth exofacial loop and then measuring the HRP activity using luminescence readout from these cells, CFBE41o-F508delCFTR-HRP, that were incubated overnight with the test corrector compounds. Briefly, for this primary assay, the CFBE41o-F508delCFTR-HRP cells were plated in 384-well plates (Greiner Bio-one; Cat 781080) at 4,000 cells/well along with 0.5 μg/mL doxycycline to induce the F508delCFTR-HRP expression and further incubated at 37° C., 5% CO2 for 72 hours. The test compounds were then added at the required concentrations and further incubated for 18-24 hours at 33° C. The highest concentration tested was 20 μM with an 8-point concentration response curve using a 3-fold dilution. Three replicate plates were run to determine one EC50. All plates contained negative controls (dimethyl sulfoxide, DMSO) and positive controls (3 μM of 3-[(2R,4R)-4-({[1-(2,2-difluoro-1,3-benzodioxol-5-yl)cyclopropyl]carbonyl}amino)-7-methoxy-3,4-dihydro-2H-chromen-2-yl]benzoic acid) as well as on-plate concentration response of the positive control. Post incubation, the plates were washed 5× times with Dulbecco's phosphate buffered saline (DPBS), followed by the addition of the HRP substrate, luminol (50 μL), and measuring the HRP activity using luminescence readout on EnVision® Multilabel Plate Reader (Perkin Elmer; product number 2104-0010). The raw counts from the experiment are analyzed using Accelrys® Assay Explorer v3.3.
Z′ greater than 0.5 was used as passing quality control criteria for the plates.
The Z′ is defined as: 1−[3*SDPositive Control+3*SDNegative Control/Absolute(MeanPositive Control−MeanNegative Control)],
wherein “SD” is standard deviation.
The % activity measured at each of the 8 test concentrations of the test compound was normalized to the on-plate positive control using the following formula: % activity=[(test compound response−DMSO response)/(positive control response−DMSO response)]*100
The maximum % activity achieved for the test compound at any tested concentration is presented in Table 1 along with the EC50 calculated using the following general sigmoidal curve with variable Hill slope equation (described as Model 42 in the Accelrys® Assay Explorer v3.3 software): y=(a−d)/(1+(x/c)^b)+d General sigmoidal curve with concentration, response, top, bottom, EC50 and Hill slope.
This model describes a sigmoidal curve with an adjustable baseline, a. The equation can be used to fit curves where response is either increasing or decreasing with respect to the independent variable, “x”.
“x” is a concentration of drug under test.
“a” is the maximum response, and “d” is the minimum response
“c” is the inflection point (EC50) for the curve. That is, “y” is halfway between the lower and upper asymptotes when x=c.
“b” is the slope-factor or Hill coefficient. The sign of b is positive when the response increases with increasing dose and is negative when the response decreases with increasing dose (inhibition).

T1 sequence (P13569 with tags, fused parts or gaps DEL508-508): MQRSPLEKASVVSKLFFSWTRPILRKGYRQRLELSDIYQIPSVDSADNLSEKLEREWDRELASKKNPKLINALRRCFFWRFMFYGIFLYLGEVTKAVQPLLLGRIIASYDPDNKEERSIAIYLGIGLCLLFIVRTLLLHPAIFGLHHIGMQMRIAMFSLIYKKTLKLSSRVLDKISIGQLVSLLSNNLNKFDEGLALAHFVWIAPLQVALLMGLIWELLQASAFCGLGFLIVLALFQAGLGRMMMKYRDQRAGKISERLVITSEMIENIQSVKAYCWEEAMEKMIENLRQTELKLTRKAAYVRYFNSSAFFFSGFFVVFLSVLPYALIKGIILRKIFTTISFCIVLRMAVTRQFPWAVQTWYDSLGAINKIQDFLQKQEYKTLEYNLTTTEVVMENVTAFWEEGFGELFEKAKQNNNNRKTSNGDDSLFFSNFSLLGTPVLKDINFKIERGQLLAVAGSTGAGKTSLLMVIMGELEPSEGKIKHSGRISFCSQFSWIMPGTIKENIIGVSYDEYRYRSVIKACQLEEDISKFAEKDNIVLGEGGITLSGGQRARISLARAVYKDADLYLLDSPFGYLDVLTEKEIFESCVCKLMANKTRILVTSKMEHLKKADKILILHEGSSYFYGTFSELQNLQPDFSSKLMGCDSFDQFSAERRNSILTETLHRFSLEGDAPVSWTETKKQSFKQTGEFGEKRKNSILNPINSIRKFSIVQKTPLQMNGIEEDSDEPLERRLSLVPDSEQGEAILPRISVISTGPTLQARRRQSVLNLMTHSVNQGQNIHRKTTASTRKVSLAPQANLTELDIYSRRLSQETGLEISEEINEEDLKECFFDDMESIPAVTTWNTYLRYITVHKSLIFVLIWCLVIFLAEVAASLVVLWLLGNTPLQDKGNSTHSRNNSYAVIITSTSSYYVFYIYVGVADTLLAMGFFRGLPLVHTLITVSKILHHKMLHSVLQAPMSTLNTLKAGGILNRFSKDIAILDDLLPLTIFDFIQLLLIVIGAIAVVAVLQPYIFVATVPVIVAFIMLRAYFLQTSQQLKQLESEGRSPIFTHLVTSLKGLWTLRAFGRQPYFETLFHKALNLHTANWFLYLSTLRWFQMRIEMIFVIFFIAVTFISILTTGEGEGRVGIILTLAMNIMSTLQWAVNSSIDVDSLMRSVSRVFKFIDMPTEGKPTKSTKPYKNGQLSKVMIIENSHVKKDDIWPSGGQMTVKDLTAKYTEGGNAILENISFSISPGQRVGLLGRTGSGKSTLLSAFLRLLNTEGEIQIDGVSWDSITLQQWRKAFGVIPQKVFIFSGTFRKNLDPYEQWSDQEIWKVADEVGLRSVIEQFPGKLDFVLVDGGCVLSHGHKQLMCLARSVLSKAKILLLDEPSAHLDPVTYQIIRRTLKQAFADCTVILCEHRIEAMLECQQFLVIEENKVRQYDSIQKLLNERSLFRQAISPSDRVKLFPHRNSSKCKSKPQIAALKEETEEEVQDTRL

Row | EC50 [nM] | Maximum % activity [%] | Maximum % activity (3 µM) [%] | SMILES
1 | 6700 | 75 |  | O=C(N[C@@H]1CCO[C@H](c2ccc3c(c2)OCO3)C1)C1(c2ccc3c(c2)OC(F)(F)O3)CC1 [Example 15, N-[(2S,4R)-2-(1,3-benzodioxol-5-yl)tetrahydro-2H-pyran-4-yl]-1-(2,2-difluoro-1,3-benzodioxol-5-yl)cyclopropanecarboxamide]
2 | 1640 | 90 |  | COC(=O)c1ccc([C@H]2C[C@@H](NC(=O)C3(c4ccc5c(c4)OC(F)(F)O5)CC3)C[C@@H](C)O2)cc1 (racemic) [Example 39, methyl rac-4-[(2R,4S,6R)-4-({[1-(2,2-difluoro-1,3-benzodioxol-5-yl)cyclopropyl]carbonyl}amino)-6-methyltetrahydro-2H-pyran-2-yl]benzoate]
3 | 410 | 104 |  | COC(=O)c1ccc([C@H]2C[C@@H](NC(=O)C3(c4ccc5c(c4)OC(F)(F)O5)CC3)CCO2)c(C)c1 (single isomer, unassigned) [Example 41]
4 | 2870 | 89 |  | CC1(C)C[C@H](NC(=O)C2(c3ccc4c(c3)OC(F)(F)O4)CC2)C[C@H](c2ccc(C(=O)O)cc2)O1 (racemic) [Example 35, rac-4-[(2R,4R)-4-({[1-(2,2-difluoro-1,3-benzodioxol-5-yl)cyclopropyl]carbonyl}amino)-6,6-dimethyltetrahydro-2H-pyran-2-yl]benzoic acid]
5 | 1900 | 89 |  | COc1ccc([C@@H]2C[C@@H](NC(=O)C3(c4ccc5c(c4)OC(F)(F)O5)CC3)C[C@H](c3ccc(C(=O)O)cc3)O2)cc1 (racemic) [Example 56, rac-4-[(2R,4S,6S)-4-({[1-(2,2-difluoro-1,3-benzodioxol-5-yl)cyclopropyl]carbonyl}amino)-6-(4-methoxyphenyl)tetrahydro-2H-pyran-2-yl]benzoic acid]
6 | 1700 | 62 |  | O=C(N[C@H]1CCO[C@@H](c2ccccc2)C1)C1(c2ccc3c(c2)OC(F)(F)O3)CC1 (racemic) [Example 1, rac-1-(2,2-difluoro-1,3-benzodioxol-5-yl)-N-[(2R,4S)-2-phenyltetrahydro-2H-pyran-4-yl]cyclopropanecarboxamide]
7 | 900 | 116 |  | COC(=O)c1ccccc1[C@H]1C[C@@H](NC(=O)C2(c3ccc4c(c3)OC(F)(F)O4)CC2)CCO1 (racemic) [Example 11, methyl rac-2-[(2R,4S)-4-({[1-(2,2-difluoro-1,3-benzodioxol-5-yl)cyclopropyl]carbonyl}amino)tetrahydro-2H-pyran-2-yl]benzoate]
8 | 850 | 71 |  | O=C(O)c1cccc([C@H]2C[C@@H](NC(=O)C3(c4ccc5c(c4)OC(F)(F)O5)CC3)CCO2)c1 (racemic) [Example 2, rac-3-[(2R,4S)-4-({[1-(2,2-difluoro-1,3-benzodioxol-5-yl)cyclopropyl]carbonyl}amino)tetrahydro-2H-pyran-2-yl]benzoic acid]
9 | 1050 | 107 |  | COC(=O)c1ccc([C@H]2C[C@@H](NC(=O)C3(c4ccc5c(c4)OC(F)(F)O5)CC3)CCO2)cc1 [Example 29, methyl 4-[(2R,4S)-4-({[1-(2,2-difluoro-1,3-benzodioxol-5-yl)cyclopropyl]carbonyl}amino)tetrahydro-2H-pyran-2-yl]benzoate]
10 | 1160 | 106 |  | CCOC(=O)c1cc(C)cc([C@H]2C[C@@H](NC(=O)C3(c4ccc5c(c4)OC(F)(F)O5)CC3)C[C@@H](c3ccccc3)O2)c1 (racemic) [Example 72, ethyl rac-3-[(2R,4S,6S)-4-({[1-(2,2-difluoro-1,3-benzodioxol-5-yl)cyclopropyl]carbonyl}amino)-6-phenyltetrahydro-2H-pyran-2-yl]-5-methylbenzoate]
11 | 1800 | 70 |  | COC(=O)c1ccc([C@@H]2C[C@@H](NC(=O)C3(c4ccc5c(c4)OC(F)(F)O5)CC3)C[C@H](c3ccc(C(=O)OC)cc3)O2)cc1 [Example 52, dimethyl rac-4,4′-[(2R,4r,6S)-4-({[1-(2,2-difluoro-1,3-benzodioxol-5-yl)cyclopropyl]carbonyl}amino)tetrahydro-2H-pyran-2,6-diyl]dibenzoate]
12 | 6470 | 73 |  | COC(=O)c1ccc([C@H]2C[C@H](NC(=O)C3(c4ccc5c(c4)OC(F)(F)O5)CC3)C[C@@H](c3ccccc3)O2)cc1 (racemic) [Example 47, methyl rac-4-[(2R,4R,6S)-4-({[1-(2,2-difluoro-1,3-benzodioxol-5-yl)cyclopropyl]carbonyl}amino)-6-phenyltetrahydro-2H-pyran-2-yl]benzoate]
13 | 320 | 119 |  | Cc1cc(C(=O)O)ccc1[C@H]1C[C@@H](NC(=O)C2(c3ccc4c(c3)OC(F)(F)O4)CC2)CCO1 (stereo in doubt) [Example 43, rel-4-[(2R,4S)-4-({[1-(2,2-difluoro-1,3-benzodioxol-5-yl)cyclopropyl]carbonyl}amino)tetrahydro-2H-pyran-2-yl]-3-methylbenzoic acid]
14 | ≥ 20000 | 13 |  | O=C(O)c1cccc([C@H]2C[C@H](NC(=O)C3(c4ccc5c(c4)OC(F)(F)O5)CC3)CCO2)c1 (racemic) [Example 5, rac-3-[(2R,4R)-4-({[1-(2,2-difluoro-1,3-benzodioxol-5-yl)cyclopropyl]carbonyl}amino)tetrahydro-2H-pyran-2-yl]benzoic acid]
15 | 2260 | 61 |  | O=C(N[C@H]1CCO[C@@H](c2cccc(CO)c2)C1)C1(c2ccc3c(c2)OC(F)(F)O3)CC1 (racemic) [Example 9, rac-1-(2,2-difluoro-1,3-benzodioxol-5-yl)-N-{(2R,4S)-2-[3-(hydroxymethyl)phenyl]tetrahydro-2H-pyran-4-yl}cyclopropanecarboxamide]
16 | 420 | 85 |  | COc1cccc([C@@H]2C[C@H](NC(=O)C3(c4ccc5c(c4)OC(F)(F)O5)CC3)C[C@H](c3cccc(C(=O)O)c3)O2)c1 (racemic) [Example 69, rac-3-[(2R,4R,6S)-4-({[1-(2,2-difluoro-1,3-benzodioxol-5-yl)cyclopropyl]carbonyl}amino)-6-(3-methoxyphenyl)tetrahydro-2H-pyran-2-yl]benzoic acid]
17 | 2400 |  | 53 | Cc1cc(C(=O)O)ccc1[C@H]1C[C@H](NC(=O)C2(c3ccc4c(c3)OC(F)(F)O4)CC2)C[C@@H](c2ccccc2)O1 (racemic) [Example 64, rac-4-[(2R,4R,6S)-4-({[1-(2,2-difluoro-1,3-benzodioxol-5-yl)cyclopropyl]carbonyl}amino)-6-phenyltetrahydro-2H-pyran-2-yl]-3-methylbenzoic acid]
18 | 520 | 92 |  | O=C(O)c1ccc([C@H]2C[C@@H](NC(=O)C3(c4ccc5c(c4)OC(F)(F)O5)CC3)C[C@@H](c3ccccc3)O2)cc1 (racemic) [Example 50, rac-4-[(2R,4S,6S)-4-({[1-(2,2-difluoro-1,3-benzodioxol-5-yl)cyclopropyl]carbonyl}amino)-6-phenyltetrahydro-2H-pyran-2-yl]benzoic acid]
19 | 9570 | 26 |  | O=C(O)c1ccc([C@@H]2C[C@H](NC(=O)C3(c4ccc5c(c4)OC(F)(F)O5)CC3)CCO2)cc1 [Example 30, 4-[(2S,4R)-4-({[1-(2,2-difluoro-1,3-benzodioxol-5-yl)cyclopropyl]carbonyl}amino)tetrahydro-2H-pyran-2-yl]benzoic acid]
20 | 1710 | 71 |  | O=C(O)c1ccc([C@@H]2C[C@H](NC(=O)C3(c4ccc5c(c4)OC(F)(F)O5)CC3)C[C@H](c3ccccc3)O2)cc1 (single isomer, unassigned) [Example 54]

Source: US9567322B2, “Substituted tetrahydropyrans and method of use” (AbbVie S.á.r.l., priority 2014, dated 2017)
